Data published in publication PMC12114510, “Antimicrobial, Antioxidant, and α-Glucosidase-Inhibitory Activities of Prenylated p-Hydroxybenzoic Acid Derivatives from Oberonia ensiformis” (Molecules, 2025).
Structures can show the parent of a compound that is named as a salt.

Columns and labels:
α-glucosidase = test: α-Glucosidase inhibition assay (PNPG method); format: biochemical; details: for IC50, inhibition of α-glucosidase: mean ± SD, PNPG method, 5 and 6 tested as epimeric mixtures
Description: The inhibitory activity of the obtained compounds on α-glucosidase was evaluated using the method mentioned in previous studies with minor modifications. […] Subsequently, 50 μL of 5.0 mM p-Nitrophenyl α-D-glucopyranoside (pNPG, dissolved in 0.1 M PB, pH 6.8) was added to the mixture. After incubation at 37 °C for 30 min, the reaction was stopped by adding 80 μL of 0.2 M sodium carbonate solution (dissolved in ultrapure water) to the reaction system. The absorbance value was measured at 405 nm using a microplate reader. […] Ac: Absorbance of the reaction system containing 20 μL PBS, 50 μL α-glucosidase, and 50 μL pNPG.

[1] = DPPH radical scavenging (antioxidant) assay; details: for IC50, clearance rate of DPPH: mean ± SD, 5 and 6 tested as epimeric mixtures
Description: The activity screening of 18 compounds isolated from O. ensiformis was carried out using 96-well plates and an enzyme labeler with DPPH methanol solution as substrate (0.15 mmol/L) and sodium ascorbate as positive control. The gradient mass concentration of the samples to be tested was 200, 100, 50, 25, 12.5 μg/mL and then divided into a sample group (100 μL DPPH solution + 100 μL sample, A), a sample control group (100 μL methanol + 100 μL sample, A0), and a negative control (100 μL DPPH solution + 100 μL methanol, A1). The samples to be tested were fully reacted under light-avoiding conditions, and the OD values were determined at 517 nm after 30 min [23]. The experiments were performed three times in parallel, and the DPPH radical scavenging rate was calculated. The scavenging rate of DPPH radical was calculated according to the following equation [24].E = [1 − (A − Aa)/Ab] × 100% A:100 μL of test compounds or L-Ascorbic Acid Sodium Salt and 100 μL of DPPH. Aa: 100 μL of test compounds or L-Ascorbic Acid Sodium Salt and 100 μL of MeOH. Ab: 100 μL of MeOH and 100 μL of DPPH.

C=C(C)C(O)Cc1cc(C(=O)O)cc(CC(O)C(=C)C)c1O (centres unmarked) [Compound 18, liparacid B]
inhibitory activity against α-glucosidase (in words) (α-glucosidase): no significant activity

CC(C)=CCc1cc(C(=O)O)cc(CC=C(C)C)c1O [Compound 12, nervogenic acid]
DPPH radical scavenging activity [1]: > 50% | IC50, clearance rate of DPPH [1]: 185.36 ± 1.96 µg/mL | inhibitory activity against α-glucosidase (in words) (α-glucosidase): strong | IC50, inhibition of α-glucosidase (α-glucosidase): 34.03 ± 0.16 µg/mL

C=C(C)C(O)Cc1cc(C(=O)OC(C)C(C)(O)C(=O)O)cc(CC=C(C)C)c1O (centres unmarked) [Compound 5, Oberoniaensiformisin E]
inhibitory activity against α-glucosidase (in words) (α-glucosidase): weak | IC50, inhibition of α-glucosidase (α-glucosidase): 106.10 ± 2.12 µg/mL

CC(C)=CCc1cc(C(=O)O[C@@H]2CC(C(=O)O)=C[C@@H](O)[C@H]2O)cc2c1OC(C)(C)C=C2 [Compound 13, oberoniamyosurusin L]
inhibitory activity against α-glucosidase (in words) (α-glucosidase): moderate | IC50, inhibition of α-glucosidase (α-glucosidase): 86.53 ± 1.08 µg/mL

C=C(C)C(O)Cc1cc(C(=O)O)cc(CCC(C)(C)O)c1O (centres unmarked) [Compound 11, oberoniamyosurusin E]
inhibitory activity against α-glucosidase (in words) (α-glucosidase): no significant activity

C=C(C)C(O)Cc1cc(C(=O)O[C@@H]2CC(C(=O)O)=C[C@@H](O)[C@H]2O)cc(CC=C(C)C)c1O (some centres unmarked) [Compound 6, oberoniaensiformisin F]
DPPH radical scavenging activity [1]: > 50% | IC50, clearance rate of DPPH [1]: 173.76 ± 23.92 µg/mL | inhibitory activity against α-glucosidase (in words) (α-glucosidase): moderate | IC50, inhibition of α-glucosidase (α-glucosidase): 58.07 ± 6.22 µg/mL

C=C(C)C(O)Cc1cc(C(=O)O)cc2c1OC(C)(C)C=C2 (centres unmarked) [Compound 10, liparacid A]
inhibitory activity against α-glucosidase (in words) (α-glucosidase): no significant activity

CC(C)(O)CCc1cc(C(=O)O)cc2c1OC(C)(C)C=C2 [Compound 16, 1iparacids C]
inhibitory activity against α-glucosidase (in words) (α-glucosidase): no significant activity

CC(C)(O)CCc1cc(C(=O)O)cc(CCC(C)(C)O)c1O [Compound 17, oberoniamyosurusin F]
inhibitory activity against α-glucosidase (in words) (α-glucosidase): no significant activity

O=C1O[C@H]([C@@H](O)CO)C(O)=C1O [L-ascorbate, L-Ascorbic Acid Sodium Salt, reference compound]
IC50, clearance rate of DPPH [1]: 2.37 ± 0.11 µg/mL

CC(C)=CCc1cc(C(=O)O)cc2c1OC(C(C)(C)O)C2 (centres unmarked) [Compound 15, oberoniamyosurusins I]
inhibitory activity against α-glucosidase (in words) (α-glucosidase): strong | IC50, inhibition of α-glucosidase (α-glucosidase): 38.80 ± 4.43 µg/mL
